Assay results taken from paper PMC12169489, “Allosteric Covalent Inhibitors of the STAT3 Transcription Factor from Virtual Screening” (ACS Medicinal Chemistry Letters, 2025).
Where “and” joins values, the source holds several entries; their conditions need not be identical. Identical values can stand only once.

What was measured:
[1] = target: T1, STAT3 protein (residues 127–688) (Homo sapiens, UniProt P40763); assay: Fluorescence polarization (FP) assay, 5-FAM-G(pTyr)LPQTV-NH2 peptide; format: binding; details: 200 nM STAT3, 5 nM fluorescent peptide, 1 h at 37 °C preincubation, mean ± 95% confidence interval, 3 replicas
T1 construct: The STAT3 protein (residues 127–688) was expressed and purified; made in house
T1 sequence (P40763 127-688): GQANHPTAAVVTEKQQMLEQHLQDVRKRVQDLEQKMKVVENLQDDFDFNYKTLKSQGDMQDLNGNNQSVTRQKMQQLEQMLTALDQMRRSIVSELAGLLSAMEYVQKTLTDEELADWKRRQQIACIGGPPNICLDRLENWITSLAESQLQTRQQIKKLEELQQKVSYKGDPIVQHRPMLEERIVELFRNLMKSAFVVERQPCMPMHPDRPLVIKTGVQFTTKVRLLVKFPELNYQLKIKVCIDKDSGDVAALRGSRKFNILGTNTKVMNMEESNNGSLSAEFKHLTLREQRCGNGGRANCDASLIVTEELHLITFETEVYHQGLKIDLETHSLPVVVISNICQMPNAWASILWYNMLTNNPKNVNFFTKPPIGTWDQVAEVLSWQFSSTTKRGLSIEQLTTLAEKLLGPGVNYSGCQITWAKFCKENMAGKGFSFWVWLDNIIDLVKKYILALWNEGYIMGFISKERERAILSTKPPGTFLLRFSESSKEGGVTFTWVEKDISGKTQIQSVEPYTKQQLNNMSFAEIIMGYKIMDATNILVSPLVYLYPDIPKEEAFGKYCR
Procedure: The STAT3 protein (residues 127–688) was expressed and purified as described in our recent work. Fluorescence polarization assays were performed on a Molecular Devices SpectraMax iD5Multimode Microplate Reader (San Jose, CA, USA) using Greiner black 384-well flat-bottom nonbinding microplates with 40 μL final well volumes. The fluorescent peptide (5-FAM-G(pTyr)-LPQTV-NH2, purchased from GenScript Biotech Ltd., Piscataway, NJ, USA), as well as the protein were diluted with a buffer containing 50 mM NaCl, 10 mM HEPES (4-(2-hydroxyethyl)-1-piperazineethanesulfonic acid), 1 mM EDTA (ethylenediaminetetraacetic acid), 2 mM DTT (dithiothreitol), and 0.1% Triton X-100, pH 7.5. The final concentration of the STAT3 protein was 200 nM, and the fluorescent peptide was added at a final concentration of 5 nM. The wells were treated with varying concentrations of inhibitor compounds, with a 5% final DMSO content. Protein and inhibitors were incubated at 37 °C for 1 h. Then the fluorescence peptide was added, and then the plate was incubated for another 20 min prior to the fluorescence readout (extinction wavelength: 475 nm, emission wavelength: 520 nm). The measurements were carried out using 3 parallel biological replicas. Fluorescence polarization was calculated from the perpendicular and parallel fluorescence intensities and then plotted against concentration. The IC50 values were determined after fitting […] dose–response curves on data points using GraphPad Prism 8.0.1. software.
Figure S6. Fluorescence polarization assay results. Nonlinear curve fitting was used ([Inhibitor] vs. response - Variable slope (four parameters)) with least squares fitting. IC50s are presented with 95% confidence intervals, measurements were done in 3 parallel biological replicas.

STAT3 protein = STAT3 protein (Homo sapiens, UniProt P40763); assay: Intact protein LC-MS labelling; format: binding
Chain of STAT3 protein (P40763 127-688 limits assumed): as the sequence (P40763 127-688) above
Source text: 1 Overview of the virtual screening workflow and hit follow-up. (a) Overview of the covalent docking virtual screening workflow, including representation of the key residues inside the binding site and highlighting the C259 residue. Remaining molecules after each step are included in parentheses. (b) Schematic representation of the expected mass peaks and shifts from the MS results for single and multiple labeling. The values assigned to the peaks for other than the peak corresponding to the unlabeled protein represents mass shift(s) resulting from successful labeling.
RPLC-MS analysis of the intact proteins were performed on a a Triple TOF 5600+ hybrid Quadrupole-TOF LC/MS/MS system (Sciex, MA, USA) equipped with a DuoSpray IonSource coupled with a Shimadzu Prominence LC20 UFLC (Shimadzu, Japan) system consisting of quaternary pump, an autosampler and a thermostatted column compartment. Chromatographic separation was achieved on the Discovery® BIO Wide Pore C-18-5 (250 mm × 2.1mm, 5 μm, 300 Å) HPLC column. Sample was eluted in gradient elution mode using solvent A (0.1% formic acid in water) and solvent B (0.1% formic acid in ACN). The initial condition was 5% B for 7 min, followed by a linear gradient to 90% B by […], from 55 to 63 min 90% B was retained; and from 63 to 65 min back to initial condition with 5 % eluent B and retained for 10 min. Flow rate was set to 0.2 ml/min. […]

SMILES	IC50 [1]	Covalent labelling of STAT3 (single vs multiple) (STAT3 protein)
C=CC(=O)N1CCCC(C(=O)NCc2ccc3c(c2)OCO3)C1 (centres unmarked) [6a, 1-acryloyl-N-(benzo[d][1,3]dioxol-5-ylmethyl)piperidine-3-carboxamide]	50.4 ± 39.4 µM	–
C=CC(=O)N1CCCC(O)(C(=O)NCc2ccc3c(c2)OCO3)C1 (centres unmarked) [6b, 1-acryloyl-N-(benzo[d][1,3]dioxol-5-ylmethyl)-3-hydroxypiperidine-3-carboxamide]	2.91 ± 0.66 µM	single labeling
C=CS(=O)(=O)N1CCCC(C(=O)NCc2ccc3c(c2)OCO3)C1 (centres unmarked) [compound 8, N-(benzo[d][1,3]dioxol-5-ylmethyl)-1-(vinylsulfonyl)piperidine-3-carboxamide]	33.4 ± 5 µM	labeled the protein at multiple residues

Continued, values first:

IC50 [1]	Covalent labelling of STAT3 (single vs multiple) (STAT3 protein)	SMILES
141 ± 53.4 µM	–	CCC(=O)N1CCCC(C(=O)NCc2ccc3c(c2)OCO3)C1 (centres unmarked) [10a, N-(benzo[d][1,3]dioxol-5-ylmethyl)-1-propionylpiperidine-3-carboxamide]
86.7 ± 49.9 µM	–	CCC(=O)N1CCCC(O)(C(=O)NCc2ccc3c(c2)OCO3)C1 (centres unmarked) [10b, N-(benzo[d][1,3]dioxol-5-ylmethyl)-3-hydroxy-1-propionylpiperidine-3-carboxamide]
40.7 ± 16.7 µM	–	C=CC(=O)N1CCCC(C(=O)NCc2cc(Br)c3c(c2)OCO3)C1 (centres unmarked) [K2]
255 ± 124 µM	–	C=CC(=O)N1CC(C(=O)NCCN2CC3CCCCN3C2=O)C1 (centres unmarked) [K3]
44.9 ± 22.7 µM	–	C=CC(=O)N1CCC(C(=O)NCC(O)c2c(F)cccc2F)CC1 (centres unmarked) [K6]
94.6 µM and 94.5 µM	–	C=CC(=O)N1CCC(C(=O)N2CCN(C(=O)Cc3ccccc3C)CC2)CC1 [K10]
